The test system of assay [1] is Splenocyte. Briefly: Cytotoxicity against mouse splenocytes assessed as cell survival at 1 to 30 uM measured after 48 hrs by CCK-8 assay relative to control. The class given is functional. The note with it: dose 1-30 µM.
Assay [2] has as its system Jurkat. Kind of assay: Cytotoxicity against human Jurkat cells assessed as inhibition of PMA/ionomycin-induced proliferation measured after 48 hrs by MTT assay. The class given is functional, cell-based. (Formazan colour is commonly taken as a measure of viable cells.)
For assay [3], the system named is Jurkat. Kind of assay: Cytotoxicity against human Jurkat cells assessed as cell survival at 75 to 100 uM measured after 48 hrs by MTT assay relative to control. The class given is functional. Particulars: dose 75-100 µM.
Assay [4] addresses Protein phosphatase 3 catalytic subunit alpha (Homo sapiens) (UniProt Q08209). Kind of assay: Inhibition of human calcineurin activity in PMA/ionomycin-induced human Jurkat cells measured after 44 hrs by Malachite green dye based fast green assay. Particulars: dose 1-100 µM.
The test system of assay [5] is Jurkat. Kind of assay: Cytotoxicity against human Jurkat cells assessed as cell survival at 1 to 40 uM measured after 48 hrs by MTT assay relative to control. Particulars: dose 1-40 µM. The class given is functional.
Assay [6] has as its system Splenocyte. Briefly: Cytotoxicity against mouse splenocytes assessed as cell survival in presence of ConA measured after 44 hrs by CCK-8 assay. In kind it is functional, cell-based.
Assay [7] in a line: Inhibition of calcineurin (unknown origin). The arrangement: species or system Homo sapiens.
In assay [8] the target is T1, Nuclear factor of activated T-cells, cytoplasmic 1 (Homo sapiens) (UniProt O95644).
T1 sequence (whole entry): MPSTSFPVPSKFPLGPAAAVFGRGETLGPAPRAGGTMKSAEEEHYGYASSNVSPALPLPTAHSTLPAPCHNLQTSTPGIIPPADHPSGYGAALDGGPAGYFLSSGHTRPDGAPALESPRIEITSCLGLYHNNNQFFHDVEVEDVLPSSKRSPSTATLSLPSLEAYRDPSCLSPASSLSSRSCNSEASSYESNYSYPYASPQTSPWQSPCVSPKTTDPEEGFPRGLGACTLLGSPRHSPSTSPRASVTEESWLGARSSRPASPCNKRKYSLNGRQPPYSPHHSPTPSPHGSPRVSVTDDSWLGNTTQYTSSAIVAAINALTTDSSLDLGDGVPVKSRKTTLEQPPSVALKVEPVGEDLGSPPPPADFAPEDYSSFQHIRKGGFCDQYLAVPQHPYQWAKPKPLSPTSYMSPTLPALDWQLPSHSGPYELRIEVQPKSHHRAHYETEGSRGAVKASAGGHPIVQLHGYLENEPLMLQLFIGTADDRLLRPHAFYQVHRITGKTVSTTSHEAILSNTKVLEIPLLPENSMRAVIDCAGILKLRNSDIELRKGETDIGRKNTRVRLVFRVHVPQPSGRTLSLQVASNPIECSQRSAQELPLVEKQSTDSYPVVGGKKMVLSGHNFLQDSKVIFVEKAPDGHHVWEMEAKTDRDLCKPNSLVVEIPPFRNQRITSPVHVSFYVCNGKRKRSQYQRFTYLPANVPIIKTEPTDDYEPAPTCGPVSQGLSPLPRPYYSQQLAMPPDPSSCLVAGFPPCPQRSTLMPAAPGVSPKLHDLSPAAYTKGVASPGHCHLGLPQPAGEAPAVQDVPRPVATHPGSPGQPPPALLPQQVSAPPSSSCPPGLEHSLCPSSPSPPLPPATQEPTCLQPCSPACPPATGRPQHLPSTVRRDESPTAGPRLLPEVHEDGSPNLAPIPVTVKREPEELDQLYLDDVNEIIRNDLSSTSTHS
Kind of assay: Inhibition of human NFAT-1 in human Jurkat cells assessed as decrease of PMA/ionomycin-induced IL-2 concentration measured after 44 hrs by western blot assay. In kind it is cell-based. Particulars: dose 5-25 µM. Background: In western blotting, separated proteins are transferred to a membrane and probed.

In assay [9] the test system is Splenocyte. Briefly: Cytotoxicity against mouse splenocytes assessed as cell survival at 50 to 100 uM measured after 48 hrs by CCK-8 assay relative to control. In kind it is functional. The note with it: dose 50-100 µM.
Assay [10] concerns the target T1, Nuclear factor of activated T-cells, cytoplasmic 1 (Homo sapiens). Briefly: Inhibition of human NFAT-1 in human Jurkat cells assessed as decrease of PMA/ionomycin-induced NFAT dephosphorylation measured after 44 hrs by western blot assay. In kind it is cell-based. Particulars: dose 5-25 µM.

In the case of `CC1=CC(=O)CC(C)(C)[C@@]1(O)/C=C/[C@@H](C)O` [BLUMENOL A], the Activity in [1] was over 90%; in assay [2] it was “Dose-Dependent Effect”; in assay [3] it was under 90%; in assay [4], “Dose-Dependent Effect”; in assay [5] it was over 90%; in assay [6] it was “Dose-Dependent Effect”. In addition, the Activity entry was “Dose-Dependent Effect” in assay [8], under 90% in assay [9] and “Dose-Dependent Effect” in assay [10]. Also, the 50% inhibitory concentration (IC50) – broadly, the concentration at which inhibition is half-maximal – in [2] was found to be 20.2 µM; in assay [6], 18.7 µM; in assay [7] it was 15.1 µM.

For the origin of these results see ChEMBL document CHEMBL4823283, “Vomifoliol isolated from mangrove plant Ceriops tagal inhibits the NFAT signaling pathway with CN as the target enzyme in vitro” (Bioorg Med Chem Lett, 2021).
